{"source": "patent US20050112573A1", "about": "“Method of detecting toxic substance” (priority 2001, published 2005)", "assay_type_in_all_cases": "cell-based, Saccharomyces cerevisiae W303", "key": {"[1]": {"system": "promoter of yeast gene YKL071w", "conditions": "SC-YKL071W-pQBI cells, 25° C., two hours; each substance at the concentration given", "description": "(§1) The inventors of the present application understood that the induction of certain yeast genes by toxic substances is caused by the activation of the promoters of the genes by the toxic substances. Thus, the inventors prepared a vector that comprised a polynucleotide sequence comprising the promoter of the yeast gene, which sequence is operably linked to a polynucleotide encoding a marker protein; and transformed yeast cells with the vector. […] The working examples hereinafter illustrate the preparation of such vectors, transformation of yeast cells by use of said vectors, and the detection of toxic substances by use of the transformed cells.\n(§2) Promoter assay is a method for determining variations of the level of intracellular genes without destroying cells on the basis of the level of expressed marker genes instead of the expressed mRNA. The gene selected to detect a chemical substance is expressed in the absence of chemical substances, and thus a marker protein also occurs in the absence of chemical substances. In the method according to the present invention, the behavior of yeast genes on the addition of test materials is determined on the basis of the level of expressed marker protein so that the presence or the absence, and the kind of toxic chemical substances are predicted. Thus, it is desired that the production of marker proteins is lower in the absence of chemical substances, and the production of marker proteins is higher in the presence of chemical substances.\n(§3) Type YEp shuttle vector pYES2 (pYES2, Cat no: V825-20, Invirtogen Corporation, USA), which can be replicated both in E. coli. and yeast was used as vector (R. W. Old, S. B. Primrose Principles of Gene Manipulation 5th Ed., BAIFUKAN CO., LTD, pp138-165, pp.234-263, 2000). The portion of vector pQBI 63 (Cat no.54-0082, Wako Pure Chemical Industries, Ltd.) corresponding to a marker protein GFP was used as the polynucleotide encoding GFP (SEQ ID No: 6). First, the GFP polynucleotide was inserted into the multiple cloning sites of pYES2 to give a vector. Thereafter, the GAL1 promoter of pYES2 was replaced with the polynucleotide comprising the promoter sequence of the intended yeast gene YKL071w (SEQ ID No: 1) to give an intended plasmid vector. Suitable restriction enzymes were selected, and the insertion of the polynucleotide comprising GFP and the promoter sequence was conducted.\n(§4) Next, the yeast Saccharomyces cerevisiae W303 was transformed with the resultant plasmid vector according to the following procedures: • 1) Incubating the yeast Saccharomyces cerevisiae W303 in 200 ml of SD medium under shaking until OD 660 reaches 0.5; • 2) Suspending the collected cells in 5 ml of TE-buffer; • 3) Adding 250 μL of 2.5M lithium acetate; • 4) Dispending each 300 μl, adding 10 μl of above plasmid vector thereto, then incubating the suspensions at 30° C. for 30 minutes; • 5) Adding 700 μl of 50% PEG4000, and incubating the mixture under shaking at 30° C. for 60 minutes; • 6) Giving heat shock (42° C., 5 minutes), and then immediately cooling the mixture; • 7) Washing the mixture twice with 1M sorbitol; and • 8) Seeding it on agar plates made of minimum essential medium.\n(§5) The cells of SC-YKL071W-pQBI as prepared in Example 2 were contacted to one of the following compounds. The yeast cells SC-YKL071W-pQBI were incubated at 25° C. in SD medium (Yeast nitrogen base without amino acids (Difco 0919-15)+glucose+amino acids (adenine, histidine, tryptophan)). One of toxic chemical substances as shown below was added to the cells at logarithmic growth phase, and then the cells were further incubated for two hours."}, "[2]": {"system": "promoter of yeast gene YCR102c", "conditions": "cells SC-YCR102C-pQBI, 2 hours incubation with the substance at the concentration printed in its row (column Concentrations); GFP fluorescence vs control without chemical", "description": "as §1, §2\nas §3, with “PQBI” for “pQBI”, “GALL” for “GAL1”, “YCR102c” for “YKL071w”, “2)” for “1)”\nas §4\nas §5, with “of SC-YCR102C-pQBI” for “of SC-YKL071W-pQBI”, “Example 3” for “Example 2”, “cells SC-YCR102C-pQBI” for “cells SC-YKL071W-pQBI”"}, "[3]": {"system": "promoter of yeast gene YLL057c", "conditions": "cells SC-YLL057C-pQBI, 2 hours incubation with the substance at the concentration printed in its row (column Concentrations); GFP fluorescence vs control without chemical", "description": "as §1, §2\nas §3, with “PQBI” for “pQBI”, “GALL” for “GAL1”, “YLL057c” for “YKL071w”, “4)” for “1)”\nas §4\nas §5, with “of SC-YLL057C-pQBI” for “of SC-YKL071W-pQBI”, “Example 5” for “Example 2”, “cells SC-YLL057C-pQBI” for “cells SC-YKL071W-pQBI”"}}, "data": [{"substance": "γ-hexachlorocyclohexane [(7)]", "values": [{"measurement": "Fluorescens", "setting": "[1]", "result": "− (the number of the cells having a higher fluorescence than the control was under 1%)"}, {"measurement": "Fluorescence", "setting": "[2]", "result": "− (the number of the cells having a higher fluorescence than the control was under 1%)"}, {"measurement": "Fluorescence", "setting": "[3]", "result": "− (the number of the cells having a higher fluorescence than the control was under 1%)"}]}]}
